For 19 molecules, EC50 and CC50 results are on record in patent publication US9884818B2, “Sulphamoylpyrrolamide derivatives and the use thereof as medicaments for the treatment of hepatitis B” (Janssen Sciences Ireland UC, priority 2013, dated 2018).

The structures appear in SMILES notation.

Usually EC50 stands for the concentration that produces a half-maximal response. One may read the CC50 as the concentration giving 50% cytotoxicity.

Series [1] concerns HBV. Description: Anti-HBV activity, HepG2.2.15 stable transfected cell line, HBV DNA from secreted virions by realtime PCR. It is filed as cell-based. To be noted: Hepatitis B virus, HepG2.2.15, 144 h, HepG2.2.15 cells, 6 days of treatment, HBV DNA from secreted virions; read-out: HepG2 2.15 EC50.
For series [2], the system named is HBV. As to the kind of experiment: Anti-HBV activity, HepG2.117 inducibly HBV producing cell line (Tet-off), intracellular HBV DNA by realtime PCR. It is filed as cell-based. The settings on record: Hepatitis B virus, HepG2.117, 72 h, HepG2.117 cells, 3 days of treatment, intracellular HBV DNA; read-out: HepG2 117 EC50.
Series [3] in a line: Cytotoxicity in HepG2 cells, Resazurin viability assay. The settings on record: human, HepG2 cells, HepG2 4 days CC50 (μM), incubated for 4 days, Resazurin assay. (In general: Alamar Blue is a resazurin reagent that responds to reducing activity.)

For the molecule `CC(C)NS(=O)(=O)c1cc(C(=O)Nc2ccc(F)c(Cl)c2)n(C)c1` [Compound 174, N-(3-Chloro-4-fluorophenyl)-1-methyl-4-[(1-methylethyl)sulfamoyl]-1H-pyrrole-2-carboxamide], the EC50 in the series on HBV [1] stood at 80 nM; in the series on HBV [2], 40 nM. For the same molecule, the CC50 at 4 days in series [3] is greater than 25 µM.

On to `CC(C)NS(=O)(=O)c1cc(C(=O)Nc2ccc(F)c(C#N)c2)n(C)c1` [Compound 175, N-(3-Cyano-4-fluorophenyl)-1-methyl-4-[(1-methylethyl)sulfamoyl]-1H-pyrrole-2-carboxamide], for which the EC50 in the series with HBV [1] stood at 70 nM; in the series with HBV [2], 130 nM. The CC50 at 4 days in series [3] is greater than 25 µM.

As to `CC(C)NS(=O)(=O)c1cc(C(=O)Nc2cccc(C#N)c2F)n(C)c1` [Compound 176, N-(3-Cyano-2-fluorophenyl)-1-methyl-4-[(1-methylyl)sulfamoyl]-1H-pyrrole-2-carboxamide], the EC50 was found to be 500 nM in the series on HBV [1] and 370 nM with HBV [2]. The CC50 at 4 days in series [3] is greater than 25 µM.

Turning to `CC(C)NS(=O)(=O)c1cc(C(=O)Nc2cccc(C#N)c2)n(C)c1` [Compound 177, N-(3-Cyanophenyl)-1-methyl-4-[(1-methylethyl)sulfamoyl]-1H-pyrrole-2-carboxamide], the EC50 in the series with HBV [1] is 330 nM; in the series with HBV [2] it was 260 nM. The cytotoxic concentration (CC50) at 4 days in series [3] is greater than 25 µM.

For the molecule `CC(C)NS(=O)(=O)c1cc(C(=O)Nc2ccc(F)c(C#N)c2F)n(C)c1` [Compound 178, N-(3-Cyano-2,4-difluorophenyl)-1-methyl-4-[(1-methylethyl)sulfamoyl]-1H-pyrrole-2-carboxamide], the EC50 in the series with HBV [1] was found to be 40 nM; in the series on HBV [2] it was 90 nM. In series [3], the CC50 at 4 days is greater than 25 µM.

As to `Cc1c(S(=O)(=O)NC2(C)COC2)cn(C)c1C(=O)Nc1ccc(F)c(C(F)(F)F)c1` [Compound 179, N-[4-Fluoro-3-(trifluoromethyl)phenyl]-1,3-dimethyl-4-[(3-methyloxetan-3-yl)sulfamoyl]-1H-pyrrole-2-carboxamide], the EC50 in the series with HBV [1] came to 300 nM; with HBV [2] it was 270 nM. This molecule yielded a CC50 at 4 days in series [3] greater than 25 µM.

In the case of `C[C@@H](NS(=O)(=O)c1cn(C)c(C(=O)Nc2cccc(C#N)c2)c1F)C(F)(F)F` [Compound 180, N-(3-Cyanophenyl)-3-fluoro-1-methyl-4-{[(1R)-2,2,2-trifluoro-1-methylethyl]sulfamoyl}-1H-pyrrole-2-carboxamide], the results for the EC50 in the series with HBV [1] and in the series with HBV [2] were 10 nM and 20 nM, respectively. The molecule also yielded a CC50 at 4 days in series [3] greater than 25 µM.

`C[C@@H](NS(=O)(=O)c1cn(C)c(C(=O)Nc2ccc(F)c(C#N)c2F)c1F)C(F)(F)F` [Compound 181, N-(3-Cyano-2,4-difluorophenyl)-3-fluoro-1-methyl-4-{[(1R)-2,2,2-trifluoro-1-methylethyl]sulfamoyl}-1H-pyrrole-2-carboxamide]: the EC50 in the series with HBV [1] worked out at 8 nM; in the series on HBV [2] it was 6 nM. In series [3], the cytotoxic concentration (CC50) at 4 days is greater than 25 µM.

Turning to `C[C@@H](NS(=O)(=O)c1cn(C)c(C(=O)Nc2cccc(C#N)c2F)c1F)C(F)(F)F` [Compound 182, N-(3-Cyano-2-fluorophenyl)-3-fluoro-1-methyl-4-{[(1R)-2,2,2-trifluoro-1-methylethyl]sulfamoyl}-1H-pyrrole-2-carboxamide], the EC50 in the series on HBV [1] was found to be 10 nM; in the series with HBV [2], 30 nM. The CC50 at 4 days in series [3] was greater than 25 µM.

Regarding `C[C@@H](NS(=O)(=O)c1cn(C)c(C(=O)Nc2ccc(F)c(F)c2F)c1F)C(F)(F)F` [Compound 183, 3-Fluoro-1-methyl-4-{[(1R)-2,2,2-trifluoro-1-methylethyl]sulfamoyl}-N-(2,3,4-trifluorophenyl)-1H-pyrrole-2-carboxamide], the EC50 with HBV [1] amounted to 20 nM; in the series with HBV [2], 10 nM. For the same molecule, the CC50 at 4 days in series [3] is greater than 25 µM.

For the molecule `C[C@@H](NS(=O)(=O)c1cn(C)c(C(=O)Nc2ccc(F)c(Br)c2F)c1F)C(F)(F)F` [Compound 184, N-(3-Bromo-2,4-difluorophenyl)-3-fluoro-1-methyl-4-{[(1R)-2,2,2-trifluoro-1-methylethyl]sulfamoyl}-1H-pyrrole-2-carboxamide], the EC50 in the series on HBV [1] was found to be 8 nM; in the series with HBV [2], 6 nM. The molecule further returned a CC50 at 4 days in series [3] greater than 25 µM.

For the molecule `C[C@@H](NS(=O)(=O)c1cn(C)c(C(=O)Nc2ccc(F)c(Cl)c2F)c1F)C(F)(F)F` [Compound 185, N-(3-Chloro-2,4-difluorophenyl)-3-fluoro-1-methyl-4-{[(1R)-2,2,2-trifluoro-1-methylethyl]sulfamoyl}-1H-pyrrole-2-carboxamide], the EC50 with HBV [1] turned out to be 6 nM; in the series with HBV [2], 5 nM. Besides, the CC50 at 4 days in series [3] was greater than 25 µM.

Turning to `CC[C@@H](C)NS(=O)(=O)c1cn(C)c(C(=O)Nc2ccc(F)c(C#N)c2)c1F` [Compound 186, N-(3-Cyano-4-fluorophenyl)-3-fluoro-1-methyl-4-{[(1R)-1-methyl-propyl]sulfamoyl}-1H-pyrrole-2-carboxamide], the EC50 with HBV [1] was 8 nM; in the series on HBV [2], 5 nM. Also, the CC50 at 4 days in series [3] was greater than 25 µM.

In the case of `Cn1cc(S(=O)(=O)NC2(C)CC(F)(F)C2)c(F)c1C(=O)Nc1ccc(F)c(C#N)c1` [Compound 187, N-(3-Cyano-4-fluorophenyl)-4-[(3,3-difluoro-1-methylcyclobutyl)sulfamoyl]-3-fluoro-1-methyl-1H-pyrrole-2-carboxamide], the EC50 is 8 nM with HBV [1] and 6 nM in the series with HBV [2]. In addition, the CC50 at 4 days in series [3] is greater than 25 µM.

As to `C[C@H](NS(=O)(=O)c1cn(C)c(C(=O)Nc2ccc(F)c(C#N)c2)c1F)C(F)(F)F` [Compound 188, N-(3-Cyano-4-fluorophenyl)-3-fluoro-1-methyl-4-{[(1S)-2,2,2-trifluoro-1-methylethyl]sulfamoyl}-1H-pyrrole-2-carboxamide], the values for the EC50 in the series on HBV [1] and in the series on HBV [2] were 40 nM and 30 nM, respectively. This molecule also came in with a CC50 at 4 days in series [3] greater than 25 µM.

As for `Cn1cc(S(=O)(=O)NC2(C(F)(F)F)CCC2)cc1C(=O)Nc1cc(F)c(F)c(Cl)c1` [Compound 189, N-(3-Chloro-4,5-difluorophenyl)-1-methyl-4-{[1-(trifluoromethyl)-cyclobutyl]sulfamoyl}-1H-pyrrole-2-carboxamide], the EC50 with HBV [1] and in the series on HBV [2] was 7 nM each time. This molecule yielded a CC50 at 4 days in series [3] of 11.3 µM.

In the case of `Cn1cc(S(=O)(=O)NC(C)(C)C)cc1C(=O)Nc1ccc(F)c(C#N)c1` [Compound 190, 4-(tert-Butylsulfamoyl)-N-(3-cyano-4-fluorophenyl)-1-methyl-1H-pyrrole-2-carboxamide], the EC50 in the series on HBV [1] was determined as 90 nM; in the series on HBV [2], 100 nM. In addition, in series [3], the CC50 at 4 days was greater than 25 µM.

With `Cn1cc(S(=O)(=O)NC(C)(C)C)cc1C(=O)Nc1cccc(C#N)c1` [Compound 191, 4-(tert-Butylsulfamoyl)-N-(3-cyanophenyl)-1-methyl-1H-pyrrole-2-carboxamide], the EC50 with HBV [1] is 180 nM; with HBV [2] it was 160 nM. Also, in series [3], the CC50 at 4 days was greater than 25 µM.

As for `Cn1cc(S(=O)(=O)NC(C)(C)C)cc1C(=O)Nc1cccc(C#N)c1F` [Compound 192, 4-(tert-Butylsulfamoyl)-N-(3-cyano-2-fluorophenyl)-1-methyl-1H-pyrrole-2-carboxamide], the EC50 in the series with HBV [1] worked out at 570 nM; with HBV [2], 190 nM. In series [3], this molecule registered a CC50 at 4 days greater than 25 µM.
